Source: PubChem BioAssay AID179 (DTP/NCI, 2004)
pEC50, pIC50: −log10 of the molar value. Active and inactive are the calls of the source.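 How the source made its calls: active means compounds giving half or more protection of infected cells from virus-caused growth loss, again on retest; inactive means the rest.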 Where a SMILES comes first, the peptide text is derived from it. The star is where a group is joined. Myristoyl = CCCCCCCCCCCCCC(=O)*

Tested on: CEM cells HIV-1 protection, formazan growth assay
Assay: NCI AIDS Antiviral Assay
Settings: for pIC50: measured here: growth of uninfected CEM cells
How it was run: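 Human CEM cells, uninfected and HIV-1-infected, exposed to five drug concentrations; growth measured by soluble formazan assay and scored as percent protection from infection, with protecting compounds retested.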

SMILES	pEC50	pIC50	outcome
CCN(CC)CCC(=O)N1CCc2c([nH]c3ccccc23)C1c1cccnc1 (stereo not given)	< 4.02	< 4.02	–
Cc1cc2n[n+]3[n-]cc(-c4ccccc4)n3c2cc1[N+](=O)[O-]	< 3.70	< 3.70	–
O=[N+]([O-])c1ccccc1C1N2CCCCC2[C@@H]2c3[nH]c4ccccc4c3CCN12 (stereo not given in full)	< 4.73	< 4.73	–
O=C(O)c1cc2ccccc2c(I)c1O	< 3.70	3.98	–
COC(=O)/N=[N+](\[O-])C(c1ccccc1)c1ccccc1	< 3.70	3.72	–
CN(O)C(=O)c1ccccc1	< 2.78	2.86	–
CC(=O)O[C@H]1C[C@H]2[C@@H](OC(C)=O)/C=C3\C[C@](C)(C(=O)[C@H](O)C(=C1C)C2(C)C)[C@@H](O)C[C@@H]3OC(=O)[C@H](O)[C@H](c1ccccc1)N(C)C	< 3.70	< 3.70	–
CCC[CH2][Sn]([CH2]CCC)([O]C(=O)C(OC)c1ccccc1)[O]C(=O)C(OC)c1ccccc1 (stereo not given)	< 5.17	6.74	–
COc1cccc(/C=C2\N=C(c3ccccc3)OC2=O)c1OC	< 3.70	4.04	–
O=C1c2c(Br)sc(Br)c2C(NC(=O)C(F)(F)F)C1O (stereo not given)	< 3.70	4.45	–
O=c1[nH]c(=O)n(C2CC(O)C(CO)O2)c2nc3cc4ccccc4cc3nc12 (stereo not given)	< 3.70	< 3.70	–
c1csc(-c2csc(-c3ccsc3)c2)c1	< 3.70	< 3.70	–
CSc1cc(-c2ccccn2)nc(-c2ccccn2)c1.CSc1cc(-c2ccccn2)nc(-c2ccccn2)c1.[Ni+2].[O-][Cl+3]([O-])([O-])[O-]	< 3.70	< 3.70	–
CC(=O)Nc1ccc([As](=O)(O)O)cc1C(=O)O	< 3.70	< 3.70	–
CC1(C)CCCCCCCCCC(C)(CCCCCCCCCCCCO)C1=O (stereo not given)	< 3.70	4.73	–
O=C(Nc1ccc(Cl)cc1)c1cc(S(=O)(=O)NC2=NC(c3ccccc3)c3cc(Cl)ccc3N2)c(SSc2cc(Cl)c(C(=O)Nc3ccc(Cl)cc3)cc2S(=O)(=O)NC2=NC(c3ccccc3)c3cc(Cl)ccc3N2)cc1Cl (stereo not given)	< 3.70	< 3.70	–
CCCCCC(=O)OC1CN2CC[C@H](O)C2C(O)[C@@H]1O (stereo not given in full)	–	–	inactive
CC1(C)C2CCC13CS(=O)(=O)N1O[C@]13C(=O)O2 (stereo not given in full)	< 3.71	< 3.71	–
CCOC1N(C2C=CC(CO)O2)C(=O)NC(=O)C1(C)Br (stereo not given)	< 4.87	< 4.87	–
COc1cc(C)cc2c(-c3ccc(O)c4c(OC)cc(C)cc34)ccc(O)c12	< 4.00	5.53	–
COc1cc2c(cc1OC)C1Cc3sccc3CN1CC2 (stereo not given)	–	–	inactive
CCOC(=O)c1cc(-c2ccn(C(C)=O)c2)c(-c2cc(C)co2)[nH]1	4.74	< 3.70	–

SMILES	pEC50	pIC50	outcome
CC1C(c2ccccc2)NC(c2ccccc2)CC1(N)C#N (stereo not given)	< 3.91	< 3.91	–
CC1=C/C(=C(/c2ccccc2S(=O)(=O)O)c2cc(C)c(O)c(CN(CC(=O)O)CC(=O)O)c2C)C(C)=C(CN(CC(=O)O)CC(=O)O)C1=O	–	–	inactive
CC(=O)C1=C(O)C(c2ccccc2)c2ccccc21 (stereo not given)	< 3.41	4.01	–
Cc1cc2c(C(C)C)c(O)c(O)c(C=O)c2c(O)c1-c1c(C)cc2c(C(C)C)c(O)c(O)c(C=Nc3ccccc3SSc3ccccc3N)c2c1O	< 3.70	4.61	–
c1ccc(COC2(OCc3ccccc3)CC3OC2C2NN=NC32)cc1 (stereo not given)	< 3.85	5.01	–
Cc1ccc2nc3c(C)c(Cl)c(=O)cc-3sc2c1	< 4.72	4.79	–
COC(=O)c1ncn(C(C(=O)OC)C(=O)OC)c1O	< 3.70	< 3.70	–
CC(=Nc1ccc(Cl)cc1)c1ccncc1	–	–	inactive
O=c1cnn(C2OC(CO)C(F)C2F)c(=O)[nH]1 (stereo not given)	< 3.44	< 3.44	–
Cc1cn(C2CC3C(COCN3O)O2)c(=O)[nH]c1=O (stereo not given)	< 3.70	3.78	–
COC1/C=C/OC2(C)Oc3c(C)c(O)c4c(O)c(c(/C=N/N(C)C(C)C(O)c5ccccc5)c(O)c4c3C2=O)NC(=O)C(C)=C/C=C/C(C)C(O)C(C)C(O)C(C)C(OC(C)=O)C1C (stereo not given)	< 3.70	5.02	–
CCCC1=NNc2n[nH]c(=S)n2N1	< 3.88	4.23	–
c1ccc(Oc2ncnc3ccccc23)cc1	< 3.70	4.20	–
COc1ccc(/C=C/c2cc(OC)c(OC)c(OC)c2)cc1O	< 5.00	6.84	–
Cc1cc2c(C(C)C)c(O)c(O)c(C=Nc3ccccc3)c2c(O)c1-c1c(C)cc2c(C(C)C)c(O)c(O)c(C=Nc3ccccc3)c2c1O	6.26	6.25	–
COC(=O)C1CCC(=S)N1C(C)=O (stereo not given)	< 3.70	< 3.70	–
NNC(=O)CC(=O)Nc1ccc(C(=O)O)cc1	< 3.70	< 3.70	–
CC(=O)O[C@H]1C(N(C)C(=O)c2ccccc2)CC[C@]2(C)C3CC[C@@]4(C)C(CC(O)[C@@H]4C(C)N(C)C)[C@@H]3CCC12 (stereo not given in full)	< 4.60	< 4.60	–
COc1ccc(Cl)cc1NC(=O)c1ccco1	< 3.70	< 3.70	–
COc1cc(C(C)O)c[n+](CCC2CNc3ccccc32)c1 (stereo not given)	< 3.66	3.71	–
O=C1OC(CC(=O)c2ccccc2Cl)C(Cl)=C1Cl (stereo not given)	< 3.93	4.16	–
c1cnn([B-]2(n3cccn3)n3ccc[n+]3[B-](n3cccn3)(n3cccn3)n3ccc[n+]32)c1	< 3.70	< 3.70	–

SMILES	pEC50	pIC50	outcome
O=c1oc2cc(O)ccc2c(O)c1C(c1ccccc1F)c1c(O)c2ccc(O)cc2oc1=O	–	–	inactive
O=c1[nH]nc(Cc2ccccc2)n1/N=C/c1ccc([N+](=O)[O-])cc1	< 3.70	< 3.70	–
CCOC(=O)c1sc(C(=O)O)cc1-c1cccs1	3.63	3.30	–
O=C1C2CCCCC2C(=O)N1n1c(-c2ccccc2)n[nH]c1=O (stereo not given)	< 3.70	< 3.70	–
CCOC(=O)C(=O)N=Nc1c(O)[nH]c2ccccc12	< 3.70	< 3.70	–
O=C1OC2C(O)COC23OC(O)CCC13O (stereo not given)	< 3.70	< 3.70	–
COc1cc2c(c3c1[C@@H](O)[C@@H](C)[C@@H](C)O3)C=CC(C)(C)O2	< 3.70	4.12	–
CCc1ccccc1NC(=O)/C(CC(=O)c1c(C)n([O-])c2ccccc2[n+]1=O)=N\NS(=O)(=O)c1ccc(C)cc1	< 4.63	4.87	–
NCCCCNCCCN1CC1	< 3.70	6.83	–
CCCCCCCCCCCCCC(=O)NCC(=O)NC(CO)C(=O)NC(CO)C(=O)NC(CCCCN)C(=O)NC(CO)C(=O)NC(CCCCN)C(=O)N1CCCC1C(=O)NC(CCCCN)C(=O)NC(CC(=O)O)C(N)=O (stereo not given) (Myristoyl-GSSKSKPKD-NH2; configuration not given here)	< 3.66	< 3.66	–
CSC(=N/N=C(\C)c1ccc(S(=O)(=O)N(C)c2ccccc2)cc1)SC	< 3.70	4.83	–
O=C(O)Cn1ccc(=O)c2c([N+](=O)[O-])cccc21	< 3.70	< 3.70	–
C[n+]1c(-c2ccc(/C=N\Nc3nnc(S)n3/N=C/c3ccc(-c4cn5ccccc5[n+]4C)cc3)cc2)cn2ccccc21	4.18	4.17	–
CC(C)N=C=NC(C)C	< 3.42	< 3.42	–
CC(=O)OCC1OC(NC(=S)Nn2c(=O)[nH]c3ccccc3c2=O)C(OC(C)=O)C(OC(C)=O)C1OC(C)=O (stereo not given)	< 3.70	< 3.70	–
N#C/C(=C(/C#N)c1ccccc1)c1ccccc1	< 3.70	< 3.70	–
Clc1c(Cl)c(Cl)c2c(nnn2C2CCCO2)c1Cl (stereo not given)	< 3.70	4.48	–
Nc1ccc([N+](=O)[O-])cc1CN1C(=O)c2ccccc2C1=O	< 3.70	< 3.70	–
O=C1Sc2ccc(Br)cc2C(=O)N2CSCC12 (stereo not given)	< 3.70	< 3.70	–
CC(=O)OC1c2ccccc2CCCCCCC12OCCO2 (stereo not given)	< 3.70	3.98	–
CCCCSC1=NCCCS1	< 3.56	< 3.56	–
COc1ccc2c(c1OC)C[N+]1(C)CCc3cc4c(cc3C1C2)OCO4 (stereo not given)	< 3.80	< 3.80	–

SMILES	pEC50	pIC50	outcome
C#Cc1c(C)c(/C=C/C(C)=C\C(=O)OC)n(C)c1C	< 4.55	< 4.55	–
c1ccc2c(c1)n1nnnc1c1nnnn21	< 4.47	< 4.47	–
NC1=NS(=O)(=O)N=C(N)C1=Cc1ccc([N+](=O)[O-])o1	< 3.06	5.31	–
COc1c(-c2ccccc2)oc2c(ccc3occc32)c1=O	< 4.02	< 4.02	–
O=S1(=O)CCCCO1	–	–	inactive
C#CC1(O)CCCCCCCCC2(CCCCCCCC1)OCCO2	< 3.70	4.59	–
Cc1ccc(-c2cc(-c3ccccc3)[s+]c3ccc(C)cc23)cc1	< 3.70	5.22	–
CCc1ccc(C2=C(O)C(=O)C(c3ccc(CC)cc3)=C(O)C2=O)cc1	< 4.15	5.01	–
CC(=O)NCCCCN(CCCNC(C)=O)C(=O)CNS(=O)(=O)c1cccc2c(N(C)C)cccc12	< 3.70	< 3.70	–
CC(=O)N=C1N(/C=C2\C(=O)Oc3ccccc3C2=O)C(=O)/C(=C/c2ccc3c(c2)OCO3)N1C	< 3.70	< 3.70	–
O=C1CC(NC(=O)C(F)(F)F)c2c(Br)sc(N3CCOCC3)c21 (stereo not given)	< 3.70	< 3.70	–
C[C@]12CC[C@H](O)CC1=CC[C@@H]1C2CC[C@]2(C)NC(=O)CCC12 (stereo not given in full)	–	–	inactive
S=C1SC2(CCCC2)NC2=C1CCC2	< 3.90	< 3.90	–
COC(=O)/C=C/C1C(C(=O)OC)C2(C(=O)OC)CCC1(C(=O)OC)N2 (stereo not given)	–	–	inactive
CCN1C[C@]2(C)CC[C@H](OCc3ccccc3)C34C5C[C@@H]6CC[C@](O)(C(C[C@@H]32)C14)C5[C@H]6OCc1ccccc1 (stereo not given in full)	< 3.70	< 4.00	–
S=C(N/N=C/c1ccccc1)NC12CC3CC(CC(C3)C1)C2	–	–	inactive
CC1(C)OC2CN(C(=O)OCc3ccccc3)C(CO)C2O1 (stereo not given)	–	–	inactive
O=C(NO)C(=O)Nc1ccc(Cl)cc1[N+](=O)[O-]	< 4.00	< 4.00	–
O=[N+]([O-])c1ccc(Cc2ccc([N+](=O)[O-])cc2)cc1	< 4.55	< 4.55	–
